Results taken from US20230332103A1, “Methods and Compositions for Generating Human Forebrain Neural Progenitor Cells and for Maturation Thereof to Parvalbumin+ Interneurons” (Trailhead Biosystems Inc., priority 2021, published 2023).

System: MGE progenitor cells
Assay: HD-DoE 12-factor experiment for stage 4 recipe, optimized for MEF2C
Assay type: cell-based, human
Source text: These effectors are small molecules or proteins. They are commonly used during stepwise differentiation of stem cells to specific fates. The choice of the effectors was based on current literature on neural induction in forebrain region of developing brain and differentiation of stem cells to neural progenitors.
To evaluate the effectors, experiments with at least 8 factors were designed that can assess the response of cells to 48 or more different combinations of effectors in a range of concentrations. To analyze the models, we focused on expression of genes involved in development and patterning of the forebrain interneurons maturation including LHX6 (Yuan et al. (2018) Elife, 7:e37382), DLX5 (Wang et al. (2010) J. Neuroscience 30:5334-5345), ASCL1 (Shi et al. (2016) J. Biol. Chem. 291:13560-13570). At later stages we focused on interneuron maturation genes including Parvalbumin and absence of somatostatin (Horn and Nicoll (2018) Proc. Natl. Acad. Sci. 115:589-594). The impacts of each effector on gene expression level are defined by a parameter called factor contribution that is calculated for each effector during the modeling.
To identify the recipe of stage 4 of differentiation, 48 different combinations of effectors generated using Design-of-Experiments compression through D-optimality were robotically prepared. The effector combinations were prepared in a basal media and were subsequently added to the cells, which were then allowed to differentiate. Three days later RNA extraction was performed, and gene expression was obtained using quantitative PCR analysis. The data was normalized and modeled using partial least squares regression analysis to the effector design, resulting in the generation of gene-specific models, which after model tuning for maximal predictive power, provided explanation of the effectors ability to control the expression of individual genes, combinatorically, and individually. Solutions within the tested space could then be explored to address desirability. […] Valproic Acid can inhibit histone deaceylases and increase γ-aminobutyric acid (GABA). […] GDNF is the […] Glial cell line-derived neurotrophic factor and can activate the GDNF pathway.
To find the set of factors that have the potential to optimize MEF2C in this experiment, a new assessment was done through dynamic profile analysis with focus on maximal expression of MEF2C (FIG. 20).

c1ccc2c(-c3cnn4cc(-c5ccc(N6CCNCC6)cc5)cnc34)ccnc2c1 [LDN193189]
impact on expression of MEF2C (dynamic profile analysis, FIG. 20): negative effect | factor contribution on expression of MEF2C (significant negative effect, model optimized for maximal expression of MEF2C): 11
